Results taken from patent publication US9867795B2, “Nitrated lipids and methods of making and using thereof” (The UAB Research Foundation, priority 2004, dated 2018).

What was measured:
[1] = •NO release from LNO2 by oxymyoglobin oxidation
Procedure: Apparent •NO formation was calculated from extents of oxymyoglobin oxidation in the visible wavelength range (spectrum) and at 580 nm (kinetic mode). Initial oxymyoglobin oxidation was calculated using a UV probe Version 1.10 (ε580 14.4 mM^−1 cm^−1). Decomposition of the NO2 group was followed at 268 nm and the appearance of oxidized products at 320 nm.
To monitor the concomitant decomposition of the parent LNO2 molecule, its UV spectrum was first analyzed. […] The decrease in absorbance at 268 nm paralleled •NO release, as detected by both EPR and oxymyoglobin oxidation.
The formation of •NO was followed by EPR (measuring cPTI formation) in the presence of different concentrations of octyl-β-glucopyranoside (OG) and octyl-thio-β-glucopyranoside (OTG). The rate of •NO release was constant and not influenced by these detergents until the critical micellar concentration (CMC) for each was achieved, after which •NO formation was inhibited as the volume of the hydrophobic environment increased (FIG. 24A). Similar results were obtained when measuring •NO formation via conversion of oxymyoglobin to metmyoglobin. Apparent •NO release rates remained constant until OG concentration reached ˜2.8 mg/ml (CMC=2.77 mg/ml (11)). […] The inhibition of the NO2 group loss at 268 nm was paralleled by inhibition of the formation of oxidation products at 320 nm, similarly paralleling the detergent-induced inhibition of •NO release observed by EPR and oxymyoglobin-based detection.

[2] = tested on: human vascular endothelial cells and macrophages; test: Whole Human Genome Oligo Array gene expression; assay type: cell-based; set-up: CCNE1 down-regulated / CAMK1 down-regulated / TCF4 down-regulated / PPARGC1B down-regulated / RB1 down-regulated / TNF down-regulated / TYK2 down-regulated / STAT1 down-regulated / CAV3 down-regulated / EDARADD down-regulated / DAPK2 down-regulated / CASP8AP2 down-regulated / ITR down-regulated / RAC2 down-regulated / CDC2 down-regulated / CDC42 down-regulated / CCND3 down-regulated / PLAU down-regulated / EGR2 down-regulated / ADRB2 down-regulated / VASP down-regulated / FDPS down-regulated / IL11 down-regulated / AIF1 down-regulated / TGFB1 down-regulated / PIK3CB down-regulated / PTGS1 down-regulated / IRS1 down-regulated / TIMP2 down-regulated / PTGES2 down-regulated / PDGFRA down-regulated / TLR2 down-regulated / E2F2 down-regulated / RACGAP1 down-regulated / LDLR down-regulated / NCOR2 down-regulated / NCR1 down-regulated / CARD9 down-regulated / SRF down-regulated / PDGFA down-regulated / FLJ23091 down-regulated / BCL2A1 down-regulated / TIMP1 down-regulated / PDGFC down-regulated / TIMP3 down-regulated / ARHGEF1 down-regulated / FN1 down-regulated / MMP19 down-regulated / JUNB down-regulated / PPARD down-regulated / MYLK down-regulated / TGFBI down-regulated / ILK down-regulated / MAPKAPK3 down-regulated / ROCK1 down-regulated / IGF1 down-regulated / VEGFB down-regulated / ECGF1 down-regulated / GADD45A up-regulated / CASP1 up-regulated / CASP4 up-regulated / CCNA1 up-regulated / JUN up-regulated / CASP3 up-regulated / GADD45B up-regulated / AATK up-regulated / AMID up-regulated / IL10RA up-regulated / GADD45G up-regulated / IRS2 up-regulated / HO-1, heme oxygenase-1 up-regulated: dose or concentration left out as unconfirmed; conditions: 24 hours
Procedure: The nitroalkenes of the present invention also display regulatory actions towards the expression of genes related to inflammatory responses, cell growth, cell differentiation, cell signaling, cell death (apoptosis) and metabolism. For example, nitrolinoleate regulates gene expression in human vascular endothelial cells and macrophages. Cells were stimulated with vehicle and linoleic acid (2.5 μM, the latter two treatments as controls) and LNO2O ([…]) for 24 hours. The total RNA was purified with a Qiagen Kit and analyzed with a Whole Human Genome Oligo Array (G4112A, 41K Genes, Agilent). […] In contrast, the native (precursor) fatty acid, linoleic acid, only regulates 14 genes, with an up-regulation of 5 genes and the down-regulation of 9 genes.

[3] = LNO2 130 μM, oxymyoglobin 20 μM
[4] = LNO2O 2.5 mM, linoleic acid 2.5 μM

For “10-nitro-9,12-octadecadienoic acid and 12-nitro-9,12-octadecadienoic acid [LNO2]”, the “apparent rate constant for •NO release” value ([1]; 100 mM phosphate buffer, 100 μM DTPA, pH 7.4, oxymyoglobin to metmyoglobin) was 9.67e-06 s⁻¹, the “OG concentration up to which apparent •NO release rates remained constant” value [1, 3] was roughly 2.8 mg/mL and the “OTG concentration at which inhibition of LNO2-dependent •NO release occurred” value [1, 3] was roughly 7 mg/mL. It also gave an AATK up-regulated [2] of 1.503, an AMID up-regulated [2] of 8.362 and a CASP1 up-regulated [2] of 2.572. For the same substance, the CASP3 up-regulated [2] was 1.689, the CASP4 up-regulated [2] was 2.57 and the CCNA1 up-regulated [2] was 2.558. The GADD45A up-regulated [2] was 2.823, the GADD45B up-regulated [2] was 1.674 and the GADD45G up-regulated [2] was 3.155. For the same substance, the “HO-1, heme oxygenase-1 up-regulated” value [2] was 4.086, the IL10RA up-regulated [2] was 3.173 and the IRS2 up-regulated [2] was 3.243. For the same substance, the JUN up-regulated [2] was 2.454, the “number of genes down-regulated” value [2, 4] was greater than 3000 genes and the “number of genes regulated” value [2, 4] was greater than 5000 genes. For the same substance, the “number of genes up-regulated” value [2, 4] was greater than 2300 genes, the ADRB2 down-regulated ([2]; p < 0.05) was 2.04 fold and the AIF1 down-regulated ([2]; p < 0.05) was 3.95 fold. For the same substance, the ARHGEF1 down-regulated ([2]; p < 0.05) was 1.64 fold, the BCL2A1 down-regulated ([2]; p < 0.05) was 3.50 fold and the CAMK1 down-regulated ([2]; p < 0.05) was 2.24 fold. The CARD9 down-regulated ([2]; p < 0.05) was 3.33 fold, the CASP8AP2 down-regulated ([2]; p < 0.05) was 1.52 fold and the CAV3 down-regulated ([2]; p < 0.05) was 1.76 fold. For the same substance, the CCND3 down-regulated ([2]; p < 0.05) was 1.51 fold, the CCNE1 down-regulated ([2]; p < 0.05) was 1.58 fold and the CDC2 down-regulated ([2]; p < 0.05) was 2.75 fold. It also gave a CDC42 down-regulated ([2]; p < 0.05) of 1.65 fold, a DAPK2 down-regulated ([2]; p < 0.05) of 1.73 fold and an E2F2 down-regulated ([2]; p < 0.05) of 3.70 fold. The ECGF1 down-regulated ([2]; p < 0.05) was 1.73 fold, the EDARADD down-regulated ([2]; p < 0.05) was 1.69 fold and the EGR2 down-regulated ([2]; p < 0.05) was 2.65 fold. It also gave an FDPS down-regulated ([2]; p < 0.05) of 2.46 fold, an FLJ23091 down-regulated ([2]; p < 0.05) of 1.74 fold and an FN1 down-regulated ([2]; p < 0.05) of 3.33 fold. The IGF1 down-regulated ([2]; p < 0.05) was 1.54 fold, the IL11 down-regulated ([2]; p < 0.05) was 2.02 fold and the ILK down-regulated ([2]; p < 0.05) was 2.94 fold. For the same substance, the IRS1 down-regulated ([2]; p < 0.05) was 2.40 fold, the ITR down-regulated ([2]; p < 0.05) was 1.68 fold and the JUNB down-regulated ([2]; p < 0.05) was 1.60 fold. For the same substance, the LDLR down-regulated ([2]; p < 0.05) was 1.77 fold, the MAPKAPK3 down-regulated ([2]; p < 0.05) was 2.18 fold and the MMP19 down-regulated ([2]; p < 0.05) was 1.58 fold. It also gave an MYLK down-regulated ([2]; p < 0.05) of 3.13 fold, an NCOR2 down-regulated ([2]; p < 0.05) of 1.59 fold and an NCR1 down-regulated ([2]; p < 0.05) of 2.30 fold. For the same substance, the PDGFA down-regulated ([2]; p < 0.05) was 2.27 fold, the PDGFC down-regulated ([2]; p < 0.05) was 1.72 fold and the PDGFRA down-regulated ([2]; p < 0.05) was 2.36 fold. The PIK3CB down-regulated ([2]; p < 0.05) was 1.93 fold, the PLAU down-regulated ([2]; p < 0.05) was 7.58 fold and the PPARD down-regulated ([2]; p < 0.05) was 3.12 fold. The PPARGC1B down-regulated ([2]; p < 0.05) was 2.20 fold, the PTGES2 down-regulated ([2]; p < 0.05) was 1.59 fold and the PTGS1 down-regulated ([2]; p < 0.05) was 3.95 fold. For the same substance, the RAC2 down-regulated ([2]; p < 0.05) was 2.47 fold, the RACGAP1 down-regulated ([2]; p < 0.05) was 2.35 fold and the RB1 down-regulated ([2]; p < 0.05) was 2.06 fold. It also gave an ROCK1 down-regulated ([2]; p < 0.05) of 1.59 fold, an SRF down-regulated ([2]; p < 0.05) of 1.56 fold and an STAT1 down-regulated ([2]; p < 0.05) of 1.74 fold. For the same substance, the TCF4 down-regulated ([2]; p < 0.05) was 2.63 fold, the TGFB1 down-regulated ([2]; p < 0.05) was 2.46 fold and the TGFBI down-regulated ([2]; p < 0.05) was 9.80 fold. It also gave a TIMP1 down-regulated ([2]; p < 0.05) of 3.62 fold, a TIMP2 down-regulated ([2]; p < 0.05) of 1.92 fold and a TIMP3 down-regulated ([2]; p < 0.05) of 2.27 fold. It also gave a TLR2 down-regulated ([2]; p < 0.05) of 1.89 fold, a TNF down-regulated ([2]; p < 0.05) of 2.01 fold and a TYK2 down-regulated ([2]; p < 0.05) of 2.00 fold. It also gave a VASP down-regulated ([2]; p < 0.05) of 4.85 fold and a VEGFB down-regulated ([2]; p < 0.05) of 1.51 fold.
